Results: patent EP4324461A1, “(E)-N-CINAMOYLAMINOALKANOLES WITH MELANOGENESIS INHIBITORY ACTIVITY” (UNIWERSYTET JAGIELLONSKI, priority 2022, dated 2024)

Experiments:
E. coli WP2 = test: Ames microplate test, E. coli WP2;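 further: bacteria treated 90 min at 37 °C in 24-well plates, then indicator medium dispensed to 384-well plates and incubated 48 h before yellow-well counting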
Experimental: (§2) The study used the Ames microplate test (Ames MPF™ Penta 2 by Xenometrix, Allschwil, Switzerland). Growth medium, exposure medium, indicator medium, positive controls, hepatic microsomal fraction, NADP, glucose-6-phosphate, Salmonella typhimurium and Escherichia coli strains were components of the purchased experimental kit. Bacteria were grown overnight in growth medium. They were then exposed to the test compound at the appropriate concentration in exposure medium without or with the rat microsomal fraction S9 in 24-well plates for 90 min at 37 °C with shaking. Then, indicator medium was added to the wells and pipetted into 384-well plates, which were incubated for 48 hours at 37 °C without shaking. Results were assessed by counting the wells in which the medium turned yellow for each experimental condition.

S. typhimurium TA1535 = test: Ames microplate test, TA1535;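 further: bacteria exposed to compound 90 min at 37 °C, then kept 48 h at 37 °C with indicator medium in 384-well plates, scoring wells that turned yellow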
Experimental: as §2

Fibroblasts (BJ) = test: Safety, LDH test in fibroblasts; format: cell-based; settings: 48 hours, positive control Triton X-100
Experimental: In order to test the safety of the compounds, both normal human cells were used: keratinocytes (HaCaT), fibroblasts (BJ), primary melanocytes that occur in the skin, as well as human cancer cells: the hepatocarcinoma line HepG2 and the neuroblastoma line SH-SY5Y, which are considered a model for the assessment of hepatocytotoxicity and neurocytotoxicity. The concentrations of the tested compounds in the range of 250-100 µM were used in the studies. The cell lines used in the research were purchased from the American Type Culture Collection (ATCC) and were cultured in media recommended by the manufacturer with the addition of FBS and antibiotics in an incubator ensuring appropriate culture conditions, i.e. humidity, temperature and CO2 concentration. Cells were seeded into multiwell plates and incubated with the test compounds for 48 hours. After this time, MTT and LDH tests were performed to assess cell viability. The MTT test is based on the ability to transform the substrate: [3-(4,5-dimethyl-2-thiazolyl)-2,5-diphenyl-2H-tetrazolium bromide into a colored product only by living cells. The absorbance at 570 nm, which corresponds to the absorption maximum for the product, is directly proportional to cell viability. The LDH test is based on testing the activity of the enzyme lactate dehydrogenase in the culture medium, which is released from cells as a result of damage to the cell membrane, e.g. as a result of cell death. Triton X-100 was used as a positive control in the test. The determination is colorimetric, the substrate is transformed by the released enzyme into a colored product, an increase in absorbance indicates a larger amount of the released enzyme, and thus confirms greater damage to cell membranes. Tables 7 and 8 present the results obtained, which correspond to the viability of cells incubated with the compounds in relation to the viability of cells constituting a control sample, i.e. incubated with the solvent (DMSO) at the same concentration as in the case of the groups tested in the MTT test or in relation to the results obtained for the Triton X-100 positive control in the LDH test. They indicate that the compounds are safe at the concentrations tested. Table 7. Viability of tested normal human cell lines: keratinocytes (HaCaT), fibroblasts (BJ) and primary melanocytes after incubation with the tested compounds - determination in the MTT test (% of solvent control ± SD) and LDH (percentage of positive control - Triton X-100.

[1] = test system: Chinese hamster ovary cell line (CHO-K1); test: Genotoxicity in the micronucleus test in CHO-K1 cells; format: cell-based
[2] = test system: reconstructed human epidermis containing melanocytes MelanoDerm™ MEL-300-B; test: Melanogenesis inhibition in reconstructed human epidermis containing melanocytes (MelanoDerm); format: cell-based; settings: 14 days; for Melanin content [% control, mean ± SD]: 7 applications; for Viability [% control, mean ± SD]: MTT
Experimental: (§1) The research was carried out on reconstructed human epidermis containing melanocytes MelanoDerm™ MEL-300-B from MatTek (Bratislava, Slovakia). The ratio of keratinocytes to melanocytes in the epidermis used is 10:1. Only medium purchased from the same manufacturer (EPI-100-NMM-113) was used to culture the epidermis during the experiments. Once the epidermis was obtained, it was transferred to 12-well plates containing 5 mL of medium/well. Plates were used to enable proper contact of the lower parts of the inserts with the substrate (so-called hanging-top plate). Solutions of the compounds were prepared immediately before their application. The solutions were applied to the inserts using a positive displacement pipette and then distributed using a sterile glass bulb headed Pasteur pipette. The application was repeated every 48 hours, a total of 7 applications were performed. Before the next application, each insert was rinsed with sterile DPBS and dried with a sterile cotton buds. The application was also accompanied by a change of the medium. […] The epidermis was cultured in an incubator ensuring appropriate humidity, temperature (37 °C) and CO2 concentration (5%).
The experiment was conducted for 14 days. After this time, the inserts were rinsed with DPBS and dried with a cotton swab. For the selected pool of inserts, tissue viability was assessed using the MTT (Thiazolyl Blue Tetrazolium bromide) test, the remaining ones were used to determine the amount of melanin. To assess viability, the inserts were transferred to 24-well plate containing 0.3 mL of DMEM medium with 1 mg/mL MTT and incubated for 3 hours in an incubator. The epidermis was then placed in 2 mL of isopropanol and the resulting formazan was extracted for 2 hours at room temperature. The absorbance of the samples was measured at 570 nm in a microplate reader and correlated with the absorbance of the control by the formula: % Viability = [OD (570 nm) for test compound/OD (570 nm) for control] × 100. To determine the amount of melanin, the inserts were incubated in 5% sodium bicarbonate for 30 min, then dried and placed in 0.5 mL of Solvable™ reagent, which caused complete lysis of the epidermis. After heating at 95 °C, the absorbance of the samples was measured at 405 nm in a microplate reader. On this basis, the reduction in the amount of melanin was calculated in relation to the control sample. The absorbance results were also correlated with a standard curve for synthetic melanin. […] Table 5. Viability and melanin content in the MelanoDerm epidermis after application of the tested samples, calculated on the basis of absorbance measurements.
as §1, with “Only media” for “Only medium”, “cotton bud.” for “cotton buds.”
The experiment was conducted for 14 days. After this time, the inserts were rinsed with DPBS and dried with a cotton bud. […]

Compound | Increase in the number of yellow wells compared to the reference level (E. coli WP2; 0.5 mM, without S9) | Increase in the number of yellow wells compared to the reference level (E. coli WP2; 1.0 mM, without S9) | Increase in the number of yellow wells compared to the reference level (E. coli WP2; 2.0 mM, without S9) | Increase in the number of yellow wells compared to the reference level (S. typhimurium TA1535; 0.5 mM, without S9) | Increase in the number of yellow wells compared to the reference level (S. typhimurium TA1535; 1.0 mM, without S9) | Increase in the number of yellow wells compared to the reference level (S. typhimurium TA1535; 2.0 mM, without S9) | Fibroblasts (BJ) LDH (Fibroblasts (BJ); 100 µM) | Fibroblasts (BJ) LDH (Fibroblasts (BJ); 150 µM) | Fibroblasts (BJ) LDH (Fibroblasts (BJ); 200 µM) | Fibroblasts (BJ) LDH (Fibroblasts (BJ); 250 µM) | DB (dicentric bridges in 1000 binucleate cells) ([1]; 100 µM) | MN (number of micronuclei in 1000 binucleate cells) ([1]; 100 µM) | NB (nuclear buds in 1000 binucleate cells) ([1]; 100 µM) | NDI (nuclear division index) ([1]; 100 µM) | DB (dicentric bridges in 1000 binucleate cells) ([1]; 150 µM) | MN (number of micronuclei in 1000 binucleate cells) ([1]; 150 µM) | NB (nuclear buds in 1000 binucleate cells) ([1]; 150 µM) | NDI (nuclear division index) ([1]; 150 µM) | DB (dicentric bridges in 1000 binucleate cells) ([1]; 200 µM) | MN (number of micronuclei in 1000 binucleate cells) ([1]; 200 µM) | other results
Cc1ccc(/C=C/C(=O)NCCCCCO)cc1 [H-415/21, (2E)-N-(5-hydroxypentyl)-3-(4-methylphenyl)prop-2-enamide] | 0.64 | 0.40 | 0.95 | 0.21 | 0.41 | 0.10 | 8.81 percentage of positive control | 8.75 percentage of positive control | 9.82 percentage of positive control | 16.63 percentage of positive control | 1.5 ± 0.7 | 12.5 ± 0.7 | 5.0 ± 1.4 | 1.54 | 3.5 ± 2.1 | 12.0 ± 2.8 | 5.5 ± 2.1 | 1.50 | 2.5 ± 0.7 | 11.5 ± 3.5 | NB (nuclear buds in 1000 binucleate cells) ([1]; 200 µM): 6.0 ± 1.4; NDI (nuclear division index) ([1]; 200 µM): 1.52
O=C(/C=C/c1ccc(Cl)cc1)NCCCO [H-330/21, (2E)-3-(4-chlorophenyl)-N-(3-hydroxypropyl)prop-2-enamide] |  |  |  |  |  |  | 4.74 percentage of positive control | 6.50 percentage of positive control | 14.25 percentage of positive control | 28.74 percentage of positive control |  |  |  |  |  |  |  |  |  |  | 
O=C(/C=C/c1ccc(Cl)cc1)NCCCCCO [Compound A-111, (2E)-3-(4-chlorophenyl)-N-(5-hydroxypentyl)prop-2-enamide] | 1.46 | 1.10 | 1.10 | 0.55 | 0.18 | 1.65 | 5.25 percentage of positive control | 5.37 percentage of positive control | 8.43 percentage of positive control | 14.90 percentage of positive control | 2.5 ± 0.7 | 4.5 ± 3.5 | 2.0 ± 2.8 | 1.60 | 4.0 ± 2.8 | 9.0 ± 5.7 | 6.0 ± 1.0 | 1.64 | 2.0 ± 2.8 | 10.0 ± 4.2 | Increase in the number of yellow wells compared to the reference level (E. coli WP2; 0.5 mM, +S9): 0.62; Increase in the number of yellow wells compared to the reference level (E. coli WP2; 1.0 mM, +S9): 0.71; Increase in the number of yellow wells compared to the reference level (E. coli WP2; 2.0 mM, +S9): 0.98; Increase in the number of yellow wells compared to the reference level (S. typhimurium TA1535; 0.5 mM, +S9): 0.58; Increase in the number of yellow wells compared to the reference level (S. typhimurium TA1535; 1.0 mM, +S9): 0.35; Increase in the number of yellow wells compared to the reference level (S. typhimurium TA1535; 2.0 mM, +S9): 0.23; Melanin content [% control, mean ± SD] ([2]; 1.0% in 50% PEG (10 µL)): 94.95±3.57 % control; Viability [% control, mean ± SD] ([2]; 1.0% in 50% PEG (10 µL)): 101.45±6.45 % control; Melanin content [% control, mean ± SD] ([2]; 1.0% in 50% PEG (25 µL)): 81.23±6.53 % control; Viability [% control, mean ± SD] ([2]; 1.0% in 50% PEG (25 µL)): 85.67±7.25 % control; Melanin content [% control, mean ± SD] ([2]; 2.0% in 50% PEG (25 µL)): 67.26±9.18 % control; Viability [% control, mean ± SD] ([2]; 2.0% in 50% PEG (25 µL)): 106.64±7.78 % control; NB (nuclear buds in 1000 binucleate cells) ([1]; 200 µM): 2.5 ± 0.7; NDI (nuclear division index) ([1]; 200 µM): 1.64
O=C(/C=C/c1ccc(Cl)cc1)NCCO [H-427/21, (2E)-3-(4-chlorophenyl)-N-(2-hydroxyethyl)prop-2-enamide] |  |  |  |  |  |  | 2.75 percentage of positive control | 5.92 percentage of positive control | 9.00 percentage of positive control | 17.32 percentage of positive control |  |  |  |  |  |  |  |  |  |  | 
O=C(/C=C/c1ccccc1)NCCCCCCO [H-425/21, (E)-N-(6-hydroxyhexyl)cinnamic acid amide] | 0.17 | 0.67 | 1.00 | 1.04 | 0.59 | 0.45 |  |  |  |  | 2.5 ± 0.7 | 11.0 ± 4.2 | 3.5 ± 0.7 | 1.56 | 2.5 ± 2.1 | 11.5 ± 0.7 | 3.5 ± 0.7 | 1.52 | 4.5 ± 3.5 | 12.5 ± 6.4 | Increase in the number of yellow wells compared to the reference level (E. coli WP2; 0.5 mM, +S9): 0.75; Increase in the number of yellow wells compared to the reference level (E. coli WP2; 1.0 mM, +S9): 0.83; Increase in the number of yellow wells compared to the reference level (E. coli WP2; 2.0 mM, +S9): 0.75; Increase in the number of yellow wells compared to the reference level (S. typhimurium TA1535; 0.5 mM, +S9): 0.54; Increase in the number of yellow wells compared to the reference level (S. typhimurium TA1535; 1.0 mM, +S9): 0.40; Increase in the number of yellow wells compared to the reference level (S. typhimurium TA1535; 2.0 mM, +S9): 0.94; Melanin content [% control, mean ± SD] ([2]; 1.0% in 50% PEG (10 µL)): 102.98±4.25 % control; Viability [% control, mean ± SD] ([2]; 1.0% in 50% PEG (10 µL)): 87.16±6.30 % control; NB (nuclear buds in 1000 binucleate cells) ([1]; 200 µM): 5.5 ± 0.7; NDI (nuclear division index) ([1]; 200 µM): 1.60
